Results on 23 compounds are retold here after patent US20230374038A1, “MODULATORS OF CYSTIC FIBROSIS TRANSMEMBRANE CONDUCTANCE REGULATOR” (VERTEX PHARMACEUTICALS INCORPORATED, priority 2020, published 2023).

The target of this test is CFTR (Homo sapiens, UniProt P13569). Nature of the test: Membrane Potential Dye, Enteroid Assay B. Format: cell-based. The note with it: for EC50: read-out: Ent. B EC50. The procedure: Base medium (ADF+++) consisted of Advanced DMEM/Ham's F12, 2 mM Glutamax, 10 mM HEPES, 1 µg/mL penicillin/streptomycin.
Sequence of CFTR (P13569 with tags, fused parts or gaps DEL508-508): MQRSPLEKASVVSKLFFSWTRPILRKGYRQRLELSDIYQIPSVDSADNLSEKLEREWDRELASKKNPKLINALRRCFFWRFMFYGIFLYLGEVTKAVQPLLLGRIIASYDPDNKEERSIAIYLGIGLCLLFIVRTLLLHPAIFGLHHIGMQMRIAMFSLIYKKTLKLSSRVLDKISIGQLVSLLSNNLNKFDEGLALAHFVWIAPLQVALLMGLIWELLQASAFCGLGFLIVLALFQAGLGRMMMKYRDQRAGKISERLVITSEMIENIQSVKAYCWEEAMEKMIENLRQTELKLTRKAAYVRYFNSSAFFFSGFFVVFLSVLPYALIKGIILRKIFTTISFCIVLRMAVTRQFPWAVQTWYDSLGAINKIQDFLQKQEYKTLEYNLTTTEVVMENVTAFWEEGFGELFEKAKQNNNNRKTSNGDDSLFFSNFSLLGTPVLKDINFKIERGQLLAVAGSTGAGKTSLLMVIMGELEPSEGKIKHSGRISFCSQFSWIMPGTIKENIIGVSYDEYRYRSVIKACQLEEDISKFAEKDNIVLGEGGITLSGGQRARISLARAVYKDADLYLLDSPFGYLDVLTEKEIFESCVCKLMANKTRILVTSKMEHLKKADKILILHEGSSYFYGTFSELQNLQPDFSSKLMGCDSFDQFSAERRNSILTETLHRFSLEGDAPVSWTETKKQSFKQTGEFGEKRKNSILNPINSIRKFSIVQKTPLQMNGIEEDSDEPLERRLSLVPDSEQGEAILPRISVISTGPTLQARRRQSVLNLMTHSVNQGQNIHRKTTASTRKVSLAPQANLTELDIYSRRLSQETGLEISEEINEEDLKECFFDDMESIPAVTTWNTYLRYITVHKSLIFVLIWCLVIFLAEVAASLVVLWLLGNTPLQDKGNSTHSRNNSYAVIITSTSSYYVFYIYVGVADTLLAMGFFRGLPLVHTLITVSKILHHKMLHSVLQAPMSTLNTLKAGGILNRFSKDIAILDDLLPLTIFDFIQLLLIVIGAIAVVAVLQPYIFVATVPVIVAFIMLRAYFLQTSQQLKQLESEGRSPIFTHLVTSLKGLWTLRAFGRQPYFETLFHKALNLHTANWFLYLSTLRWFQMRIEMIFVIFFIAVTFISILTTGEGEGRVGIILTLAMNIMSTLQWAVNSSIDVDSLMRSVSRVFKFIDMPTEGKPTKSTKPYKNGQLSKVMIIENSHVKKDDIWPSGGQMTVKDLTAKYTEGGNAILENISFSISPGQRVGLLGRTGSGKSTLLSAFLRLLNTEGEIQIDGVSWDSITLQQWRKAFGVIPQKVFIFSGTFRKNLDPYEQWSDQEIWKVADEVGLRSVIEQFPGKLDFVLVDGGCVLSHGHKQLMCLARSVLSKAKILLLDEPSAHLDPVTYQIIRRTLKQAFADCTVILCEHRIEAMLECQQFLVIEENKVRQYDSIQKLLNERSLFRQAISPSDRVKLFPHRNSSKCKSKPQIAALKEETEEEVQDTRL
Intestinal enteroid maintenance medium (IEMM) consisted of ADF+++, 1× B27 supplement, 1× N2 supplement, 1.25 mM N-acetyl cysteine, 10 mM Nicotinamide, 50 ng/mL hEGF, 10 nM Gastrin, 1 pg/mL hR-spondin-1, 100 ng/mL hNoggin, TGF-b type 1 inhibitor A-83-01, 100 μg/mL Primocin, […] P38 MAPK inhibitor SB202190.
Bath 1 Buffer consisted of 1 mM MgCl2, 160 mM NaCl, 4.5 mM KCl, 10 mM HEPES, 10 mM Glucose, 2 mM CaCl2).
Chloride Free Buffer consisted of 1 mM Magnesium Gluconate, 2 mM Calcium Gluconate, 4.5 mM Potassium Gluconate, 160 mM Sodium Gluconate, 10 mM HEPES, 10 mM Glucose.
Bath1 Dye Solution consisted of Bath 1 Buffer, 0.04% Pluronic F127, […] Methyl Oxonol, 30 μM CaCCinh-A01, 30 μM Chicago Sky Blue.
Chloride Free Dye Solution consisted of Chloride Free Buffer, 0.04% Pluronic F127, 20 μM Methyl Oxonol, 30 μM CaCCinh-A01, 30 μM Chicago Sky Blue.
Chloride Free Dye Stimulation Solution consisted of Chloride Free Dye Solution, 10 μM forskolin, 100 μM IBMX, and 300 nM Compound III.
Human intestinal epithelial enteroid cells were obtained from the Hubrecht Institute for Developmental Biology and Stem Cell Research, Utrecht, The Netherlands and expanded in T-Flasks as previously described (Dekkers J F, Wiegerinck C L, de Jonge H R, Bronsveld I, Janssens H M, de Winter-de Groot K M, Brandsma A M, de Jong N W M, Bijvelds M J C, Scholte B J, Nieuwenhuis E E S, van den Brink S, Clevers H, van der Ent C K, Middendorp S and M Beekman J M. A functional CFTR assay using primary cystic fibrosis intestinal organoids. Nat Med. 2013 July; 19(7):939-45.).
Cells were recovered in cell recovery solution, collected by centrifugation at 650 rpm for 5 min at 4° C., resuspended in TryPLE and incubated for 5 min at 37° C. Cells were then collected by centrifugation at 650 rpm for 5 min at 4° C. and resuspended in IEMM containing 10 μM ROCK inhibitor (RI). The cell suspension was passed through a 40 μm cell strainer and resuspended at 1×10^6 cells/mL in IEMM containing 10 μM RI. Cells were seeded at 5000 cells/well into multi-well plates and incubated for overnight at 37° C., 95% humidity and 5% CO2 prior to assay.
Enteroid cells were incubated with test compound in IEMM for 18-24 hours at 37° C., 95% humidity and 5% CO2. […] Briefly, cells were washed 5 times in Bath 1 Buffer. Bath 1 Dye Solution was added and the cells were incubated for 25 min at room temperature. Following dye incubation, cells were washed 3 times in Chloride Free Dye Solution. Chloride transport was initiated by addition of Chloride Free Dye Stimulation Solution and the fluorescence signal was read for 15 min. […] Chloride transport was then expressed as a percentage of the chloride transport following treatment with 1 μM (14S)-8-[3-(2-{Dispiro[2.0.2.1]heptan-7-yl}ethoxy)-1H-pyrazol-1-yl]-12,12-dimethyl-2λ^6-thia-3,9,11,18,23-pentaazatetracyclo[17.3.1.111,14.05,10]tetracosa-1(22),5,7,9,19(23),20-hexaene-2,2,4-trione, 3 μM (R)-1-(2,2-difluorobenzo[d][1,3]dioxol-5-yl)-N-(1-(2,3-dihydroxypropyl)-6-fluoro-2-(1-hydroxy-2-methylpropan-2-yl)-1H-indol-5-yl)cyclopropanecarboxamide and 300 nM acute N-[2,4-bis(1,1-dimethylethyl)-5-hydroxyphenyl]-1,4-dihydro-4-oxoquinoline-3-carboxamide triple combination control (% Activity).

Each structure is given as a SMILES string.

The term EC50 denotes the concentration needed to bring the measured effect to its halfway point. With `COCCN1CCC2(CC1)CC(N1C(=O)c3cccc(c3)S(=O)(=O)Nc3nc(c(C)c(-c4c(C)cccc4C)n3)OC[C@H]1CC(C)C)C2` [Compound 55, (11R)-6-(2,6-Dimethylphenyl)-11-isobutyl-12-[7-(2-methoxyethyl)-7-azaspiro[3.5]nonan-2-yl]-7-methyl-2,2-dioxo-9-oxa-2λ^6-thia-3,5,12,19-tetrazatricyclo[12.3.1.14,8]nonadeca-1(18),4(19),5,7,14,16-hexaen-13-one], the “Ent. B Max Activity” value is “+++ (+++ is >60%)” and the EC50 is below 1000 nM.

With `Cc1cccc(C)c1-c1nc2nc(c1C)OC[C@@H](CC1(C(F)(F)F)CC1)N(C1CC3(CC(NC(=O)OC(C)C)C3)C1)C(=O)c1cccc(c1)S(=O)(=O)N2` (stereo in doubt) [Compound 87], the “Ent. B Max Activity” value is reported as “+++ (+++ is >60%)” and the EC50 is below 1000 nM.

Turning to `Cc1cccc(C)c1-c1nc2nc(c1-c1cnn(C(C)C)c1)OC[C@@H](C)NC(=O)c1cccc(c1)S(=O)(=O)N2` [Compound 139], the “Ent. B Max Activity” value is “+ (+ is <30%)” and the EC50 is 3000 to 30000 nM.

For the compound `Cc1cccc(C)c1-c1nc2nc(c1C)OC[C@@H](CCC(C)(C)O)NC(=O)c1cccc(c1)S(=O)(=O)N2` [Compound 107, (11R)-6-(2,6-Dimethylphenyl)-11-(3-hydroxy-3-methyl-butyl)-7-methyl-2,2-dioxo-9-oxa-2λ^6-thia-3,5,12,19-tetrazatricyclo[12.3.1.14,8]nonadeca-1(18),4(19),5,7,14,16-hexaen-13-one], the “Ent. B Max Activity” value was “+ (+ is <30%)” and the EC50 was 3000 to 30000 nM.

For the compound `Cc1cccc(C)c1-c1nc2nc(c1C)OC[C@@H](CC(C)C)N([C@H]1C[C@@H](OC(C)C)C1)C(=O)c1cccc(c1)S(=O)(=O)N2` (single isomer, unassigned) [Compound 48], the “Ent. B Max Activity” value was “+++ (+++ is >60%)” and the EC50 was below 1000 nM.

In the case of `Cc1cccc(C)c1-c1nc2nc(c1CN(C)C)OC[C@@H](CC(C)C)N(C1CC3(CC3)C1)C(=O)c1cccc(c1)S(=O)(=O)N2` [Compound 171, (11R)-7-[(Dimethylamino)methyl]-6-(2,6-dimethylphenyl)-11-isobutyl-2,2-dioxo-12-spiro[2.3]hexan-5-yl-9-oxa-2λ^6-thia-3,5,12,19-tetrazatricyclo[12.3.1.14,8]nonadeca-1(18),4(19),5,7,14,16-hexaen-13-one], the “Ent. B Max Activity” value is “++ (++ is 30-60%)” and the EC50 was below 1000 nM.

As for `COC(=O)NC1CC2(C1)CC(N1C(=O)c3cccc(c3)S(=O)(=O)Nc3nc(c(C)c(-c4c(C)cccc4C)n3)OC[C@H]1CC(C)(C)C)C2` (single isomer, unassigned) [Compound 61], the “Ent. B Max Activity” value was “+++ (+++ is >60%)” and the EC50 is below 1000 nM.

As to `Cc1cccc(C)c1-c1nc2nc(c1C#N)OC[C@@H](CC(C)C)N(C1CC3(CC3)C1)C(=O)c1cccc(c1)S(=O)(=O)N2` [Compound 174], the “Ent. B Max Activity” value was “++ (++ is 30-60%)” and the EC50 is below 1000 nM.

Regarding `Cc1cccc(C)c1-c1nc2nc(c1C)OC[C@@H](CC(C)C)N(C1CC3(CC3)C1)C(=O)c1cccc(c1)S(=O)(=O)N2` [Compound 75], the “Ent. B Max Activity” value was “+++ (+++ is >60%)” and the EC50 is below 1000 nM.

Turning to `Cc1cccc(C)c1-c1nc2nc(c1C)OC[C@@H](CC1(C(F)(F)F)CC1)N(C1CC3(CC(NC(=O)OC(C)C)C3)C1)C(=O)c1cccc(c1)S(=O)(=O)N2` (stereo in doubt) [Compound 89], the “Ent. B Max Activity” value is recorded as “+++ (+++ is >60%)” and the EC50 is below 1000 nM.

`Cc1cccc(C)c1-c1nc2nc(c1C)OC[C@@H](CC(C)(C)C)N(C1CC3(CC(NC(=O)OC(C)(C)C)C3)C1)C(=O)c1cccc(c1)S(=O)(=O)N2` (single isomer, unassigned) [Compound 59]: the “Ent. B Max Activity” value is recorded as “+++ (+++ is >60%)” and the EC50 was below 1000 nM.

As to `Cc1cccc(C)c1-c1nc2nc(c1F)OC[C@@H](CC(C)C)N(C1CC3(CCN(C(=O)OC(C)(C)C)CC3)C1)C(=O)c1cccc(c1)S(=O)(=O)N2` [Compound 187], the “Ent. B Max Activity” value is “+++ (+++ is >60%)” and the EC50 is below 1000 nM.

As to `[H][C@]1(N2C(=O)c3cccc(c3)S(=O)(=O)Nc3nc(c(C)c(-c4c(C)cccc4C)n3)OC[C@H]2CC(C)(C)C)C[C@@]2(C[C@H](C(C)(C)O)C2)C1` (single isomer, unassigned) [Compound 58], the “Ent. B Max Activity” value is listed as “+++ (+++ is >60%)” and the EC50 was below 1000 nM.

Take `Cc1cccc(C)c1-c1nc2nc(c1C)OC[C@@H](CC(C)C)N([C@H]1C[C@@]3(C[C@H](N(C)C)C3)C1)C(=O)c1cccc(c1)S(=O)(=O)N2` (single isomer, unassigned) [Compound 53]: the “Ent. B Max Activity” value is “+++ (+++ is >60%)” and the EC50 is below 1000 nM.

With `Cc1cccc(C)c1-c1nc2nc(c1C)OC[C@@H](CC(C)C)N([C@H]1C[C@@H](OC(C)C)C1)C(=O)c1cccc(c1)S(=O)(=O)N2` (single isomer, unassigned) [Compound 47], the “Ent. B Max Activity” value is “++ (++ is 30-60%)” and the EC50 was below 1000 nM.

Take `Cc1cccc(C)c1-c1nc2nc(c1C#N)OC[C@@H](CC(C)C)NC(=O)c1cccc(c1)S(=O)(=O)N2` [Compound 169, (11R)-6-(2,6-Dimethylphenyl)-11-isobutyl-2,2,13-trioxo-9-oxa-2λ^6-thia-3,5,12,19-tetrazatricyclo[12.3.1.14,8]nonadeca-1(18),4(19),5,7,14,16-hexaene-7-carbonitrile]: the “Ent. B Max Activity” value is given as “+++ (+++ is >60%)” and the EC50 lay in the range of 3000 to 30000 nM.

Take `Cc1cccc(C)c1-c1nc2nc(c1OC(C)C)OC[C@@H](CC(C)C)N(C1CC3(CC3)C1)C(=O)c1cccc(c1)S(=O)(=O)N2` [Compound 189]: the “Ent. B Max Activity” value is reported as “+++ (+++ is >60%)” and the EC50 was below 1000 nM.

With `Cc1cccc(C)c1-c1nc2nc(c1C)OC[C@@H](CC(C)(C)C)NC(=O)c1cccc(c1)S(=O)(=O)N2` [Compound 102], the “Ent. B Max Activity” value was “+++ (+++ is >60%)” and the EC50 is below 1000 nM.

As to `Cc1cccc(C)c1-c1nc2nc(c1C)OCCNC(=O)c1cccc(c1)S(=O)(=O)N2` [Compound 35, 6-(2,6-Dimethylphenyl)-7-methyl-9-oxa-2λ^6-thia-3,5,12,19-tetraazatricyclo[12.3.1.14,8]nonadeca-1(18),4,6,8(19),14,16-hexaene-2,2,13-trione], the “Ent. B Max Activity” value is recorded as “++ (++ is 30-60%)” and the EC50 fell in the range of 3000 to 30000 nM.

Consider `Cc1cccc(C)c1-c1nc2nc(c1C)OC[C@@H](CC(C)(C)C)N(C1CC3(CC(NC(=O)OC(C)C)C3)C1)C(=O)c1cccc(c1)S(=O)(=O)N2` (single isomer, unassigned) [Compound 65], for which the “Ent. B Max Activity” value is “+++ (+++ is >60%)” and the EC50 is below 1000 nM.

Consider `COc1ccccc1-c1c2nc(nc1-c1c(C)cccc1C)NS(=O)(=O)c1cccc(c1)C(=O)NC[C@@H](C)O2` [Compound 131], for which the “Ent. B Max Activity” value is on record as “+++ (+++ is >60%)” and the EC50 lay in the range of 1000 to 3000 nM.

For the compound `Cc1cccc(C)c1-c1nc2nc(c1C)O[C@H](C)CN(C1CC3(CC(NC(=O)OC(C)(C)C)C3)C1)C(=O)c1cccc(c1)S(=O)(=O)N2` (stereo partly shown) [Compound 201], the “Ent. B Max Activity” value is reported as “++ (++ is 30-60%)” and the EC50 is below 1000 nM.

For `[H][C@]1(N2C(=O)c3cccc(c3)S(=O)(=O)Nc3nc(c(C)c(-c4c(C)cccc4C)n3)OC[C@H]2CC(C)(C)C)C[C@@]2(C[C@H](C(C)(C)O)C2)C1` (single isomer, unassigned) [Compound 57], the “Ent. B Max Activity” value was “+++ (+++ is >60%)” and the 50% effective concentration (EC50) is below 1000 nM.
